Positions of bridges follow the written chain, without caps; N, C: chain ends. Non-standard residues stand in square brackets, D forms with d. Residues, ends and D or L forms follow the SMILES beside them. NMeF = CN[C@@H](Cc1ccccc1)C(=O)O

This assay addresses T1, human ROR1 (Homo sapiens, UniProt Q01973).
T1 construct: host or cells: HEK 293T cells, Tet-on system induced with doxycycline
The assay can be described thus: ROR1 high content cell-based binding assay. The note with it: read-out: ROR1 Binding 293T Human HC Cell Based Assay IC50. The method, then:
ROR1 high content cell-based binding assay: Human embryonic kidney 293T cells (293T) expressing human ROR1 with Tet-on system by doxycycline were used (Arctic-488134) for the assessment of inhibition of the binding of fluorescently-labeled competing peptide (“Probe”) that specifically binds to human ROR1. […] Cryopreserved vials were thawed in a 37° C. water bath. Cells were washed in assay culture media [DMEM (Life Technologies Inc. Cat. […] Cat. No. 15140-122) and […] dox] and diluted 1.0×10^5 cells/mL. Cells were seeded into PDL-coated 384 well plates (BD Falcon Cat. No. 356663) at 2,000 cells/20 μL. Plates were allowed to incubate for 10 minutes at room temperature and then transferred to a 37° C./5% CO2 incubator for overnight incubation. The next day, 125 nL of the test compound was added using an ECHO followed by the addition of 5 μL/well of 5-FAM-labeled probe to cells at a final concentration of 30 nM. Sample were incubated for 1 hour at 37° C. for 1 hour, followed by 3 washes in […] of dPBS. Cells were fixed by adding 8% (w/v) formaldehyde (Sigma Cat. No. 252549), 20 μg/mL Hoechst (Thermo Scientific Cat. No. 62249) in PBS for 20 minutes at room temperature. The plates were washed 3 more times in dPBS and 15 μl of PBS was left in the wells following the last wash. The plates were sealed, and data was using obtained using a CellInsight NXT High Content Screening Platform IC903000 (Thermo Scientific).

T1 sequence (Q01973 30-937): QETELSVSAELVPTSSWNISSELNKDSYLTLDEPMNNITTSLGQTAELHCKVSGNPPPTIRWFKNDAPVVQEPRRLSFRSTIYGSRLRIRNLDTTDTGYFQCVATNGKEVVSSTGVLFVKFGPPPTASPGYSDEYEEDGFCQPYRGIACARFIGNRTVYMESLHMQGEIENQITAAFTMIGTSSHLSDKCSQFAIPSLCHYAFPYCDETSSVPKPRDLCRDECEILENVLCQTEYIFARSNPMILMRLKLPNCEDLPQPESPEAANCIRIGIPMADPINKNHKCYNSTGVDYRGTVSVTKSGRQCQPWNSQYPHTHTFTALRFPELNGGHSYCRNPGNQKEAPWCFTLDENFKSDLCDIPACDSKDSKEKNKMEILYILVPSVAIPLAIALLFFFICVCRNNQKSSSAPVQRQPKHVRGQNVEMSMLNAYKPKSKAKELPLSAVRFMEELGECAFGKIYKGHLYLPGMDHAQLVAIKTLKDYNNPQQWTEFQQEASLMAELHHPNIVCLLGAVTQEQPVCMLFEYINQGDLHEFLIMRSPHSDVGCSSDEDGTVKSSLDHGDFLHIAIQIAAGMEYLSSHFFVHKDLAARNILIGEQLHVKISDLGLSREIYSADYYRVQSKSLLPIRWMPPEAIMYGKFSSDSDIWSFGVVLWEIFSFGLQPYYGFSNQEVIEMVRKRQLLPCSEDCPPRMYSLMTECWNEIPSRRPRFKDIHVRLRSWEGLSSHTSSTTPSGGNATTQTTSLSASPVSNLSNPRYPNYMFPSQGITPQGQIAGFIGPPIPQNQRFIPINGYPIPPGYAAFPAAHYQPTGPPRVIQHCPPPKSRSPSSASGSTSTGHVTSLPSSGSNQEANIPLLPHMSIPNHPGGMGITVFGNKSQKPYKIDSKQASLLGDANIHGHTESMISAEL

On to `CC(C)C[C@@H]1NC(=O)[C@H](Cc2ccc(O)cc2)NC(=O)[C@H](Cc2ccccc2)NC(=O)CSC[C@@H](C(=O)NCC(N)=O)NC(=O)[C@H](CC(C)C)NC(=O)[C@H](Cc2ccccc2)N(C)C(=O)[C@H](Cc2ccc(O)cc2)NC(=O)[C@H](Cc2c[nH]c3ccccc23)NC(=O)CNC(=O)[C@H](CCCNC(=N)N)NC(=O)CNC(=O)[C@H](C(C)C)NC1=O` [Example 1033] ({CH2CO}-FYLVGRGWY[NMeF]LCG-NH2; thioether N-12), for which the IC50 came to 768 nM.

With `CC(C)C[C@@H]1NC(=O)[C@H](Cc2ccc(O)cc2)NC(=O)[C@H](Cc2ccccc2)NC(=O)CSC[C@@H](C(=O)NCC(N)=O)NC(=O)[C@H](CC(C)C)NC(=O)[C@H](Cc2ccccc2)N(C)C(=O)[C@H](Cc2ccc(O)cc2)NC(=O)[C@H](Cc2c[nH]c3ccccc23)NC(=O)CNC(=O)[C@H](CO)NC(=O)[C@H](C(C)C)NC(=O)[C@H](C(C)C)NC1=O` [Example 1034] ({CH2CO}-FYLVVSGWY[NMeF]LCG-NH2; thioether N-12), the 50% inhibitory concentration (IC50) was determined as 246 nM.

With `CC(C)C[C@@H]1NC(=O)[C@H](Cc2ccc(O)cc2)NC(=O)[C@H](Cc2ccccc2)NC(=O)CSC[C@@H](C(=O)NCC(N)=O)NC(=O)[C@H](CC(C)C)NC(=O)[C@H](Cc2ccccc2)N(C)C(=O)[C@H](Cc2ccc(O)cc2)NC(=O)[C@H](Cc2c[nH]c3ccccc23)NC(=O)CNC(=O)[C@H](CO)NC(=O)[C@H](Cc2ccccc2)NC(=O)[C@H](C(C)C)NC1=O` [Example 1035] ({CH2CO}-FYLVFSGWY[NMeF]LCG-NH2; thioether N-12), the IC50 is 59 nM.

Regarding `CC(C)C[C@@H]1NC(=O)[C@H](Cc2ccc(O)cc2)NC(=O)[C@H](Cc2ccccc2)NC(=O)CSC[C@@H](C(N)=O)NC(=O)[C@H](CC(C)C)NC(=O)[C@H](Cc2ccccc2)N(C)C(=O)[C@H](Cc2ccc(O)cc2)NC(=O)[C@H](Cc2c[nH]c3ccccc23)NC(=O)CNC(=O)[C@H](CO)NC(=O)[C@H](Cc2ccc(O)cc2)NC(=O)[C@H](C(C)C)NC1=O` [Example 1036] ({CH2CO}-FYLVYSGWY[NMeF]LC-NH2; thioether N-12), the 50% inhibitory concentration (IC50) was determined as 7 nM.

Take `CC(C)C[C@@H]1NC(=O)[C@H](Cc2ccc(O)cc2)NC(=O)[C@H](C)NC(=O)CSC[C@@H](C(=O)NCC(N)=O)NC(=O)[C@H](CC(C)C)NC(=O)[C@H](Cc2ccccc2)N(C)C(=O)[C@H](Cc2ccc(O)cc2)NC(=O)[C@H](Cc2c[nH]c3ccccc23)NC(=O)CNC(=O)[C@H](CO)NC(=O)[C@H](Cc2ccc(O)cc2)NC(=O)[C@H](C(C)C)NC1=O` [Example 1037] ({CH2CO}-AYLVYSGWY[NMeF]LCG-NH2; thioether N-12): the IC50 came out at 251 nM.

As to `CC(C)C[C@@H]1NC(=O)[C@H](C)NC(=O)[C@H](Cc2ccccc2)NC(=O)CSC[C@@H](C(=O)NCC(N)=O)NC(=O)[C@H](CC(C)C)NC(=O)[C@H](Cc2ccccc2)N(C)C(=O)[C@H](Cc2ccc(O)cc2)NC(=O)[C@H](Cc2c[nH]c3ccccc23)NC(=O)CNC(=O)[C@H](CO)NC(=O)[C@H](Cc2ccc(O)cc2)NC(=O)[C@H](C(C)C)NC1=O` [Example 1038] ({CH2CO}-FALVYSGWY[NMeF]LCG-NH2; thioether N-12), the IC50 worked out at 23 nM.

For `CC(C)C[C@@H]1NC(=O)[C@H](Cc2ccc(O)cc2)NC(=O)[C@H](Cc2ccccc2)NC(=O)CSC[C@@H](C(=O)NCC(N)=O)NC(=O)[C@H](CC(C)C)NC(=O)[C@H](Cc2ccccc2)N(C)C(=O)[C@H](C)NC(=O)[C@H](Cc2c[nH]c3ccccc23)NC(=O)CNC(=O)[C@H](CO)NC(=O)[C@H](Cc2ccc(O)cc2)NC(=O)[C@H](C(C)C)NC1=O` [Example 1039] ({CH2CO}-FYLVYSGWA[NMeF]LCG-NH2; thioether N-12), the IC50 was 681 nM.

For `CC(C)C[C@@H]1NC(=O)[C@H](Cc2ccccc2)N(C)C(=O)[C@H](Cc2ccc(O)cc2)NC(=O)[C@H](Cc2c[nH]c3ccccc23)NC(=O)CNC(=O)[C@H](CO)NC(=O)[C@H](Cc2ccc(O)cc2)NC(=O)[C@H](C(C)C)NC(=O)[C@H](C)NC(=O)[C@H](Cc2ccc(O)cc2)NC(=O)[C@H](Cc2ccccc2)NC(=O)CSC[C@@H](C(=O)NCC(N)=O)NC1=O` [Example 1040] ({CH2CO}-FYAVYSGWY[NMeF]LCG-NH2; thioether N-12), the IC50 was 17 nM.

For the molecule `CC(C)C[C@@H]1NC(=O)[C@H](Cc2ccc(O)cc2)NC(=O)[C@H](Cc2ccccc2)NC(=O)CSC[C@@H](C(=O)NCC(N)=O)NC(=O)[C@H](CC(C)C)NC(=O)[C@H](Cc2ccccc2)N(C)C(=O)[C@H](Cc2ccc(O)cc2)NC(=O)[C@H](Cc2c[nH]c3ccccc23)NC(=O)CNC(=O)[C@H](CO)NC(=O)[C@H](Cc2ccc(O)cc2)NC(=O)[C@H](C)NC1=O` [Example 1041] ({CH2CO}-FYLAYSGWY[NMeF]LCG-NH2; thioether N-12), the IC50 came to 12 nM.

For the molecule `CC(C)C[C@@H]1NC(=O)[C@H](Cc2ccc(O)cc2)NC(=O)[C@H](Cc2ccccc2)NC(=O)CSC[C@@H](C(=O)NCC(N)=O)NC(=O)[C@H](C)NC(=O)[C@H](Cc2ccccc2)N(C)C(=O)[C@H](Cc2ccc(O)cc2)NC(=O)[C@H](Cc2c[nH]c3ccccc23)NC(=O)CNC(=O)[C@H](CO)NC(=O)[C@H](Cc2ccc(O)cc2)NC(=O)[C@H](C(C)C)NC1=O` [Example 1042] ({CH2CO}-FYLVYSGWY[NMeF]ACG-NH2; thioether N-12), the IC50 worked out at 31 nM.

Regarding `CC(C)C[C@@H]1NC(=O)[C@H](Cc2ccc(O)cc2)NC(=O)[C@H](Cc2ccccc2)NC(=O)CSC[C@@H](C(=O)NCC(N)=O)NC(=O)[C@H](CC(C)C)NC(=O)[C@H](Cc2ccccc2)N(C)C(=O)[C@H](Cc2ccc(O)cc2)NC(=O)[C@H](Cc2c[nH]c3ccccc23)NC(=O)CNC(=O)[C@H](Cc2ccccc2)NC(=O)[C@H](Cc2ccc(O)cc2)NC(=O)[C@H](C(C)C)NC1=O` [Example 1043] ({CH2CO}-FYLVYFGWY[NMeF]LCG-NH2; thioether N-12), the IC50 came out at 38 nM.

For the molecule `CC(C)C[C@@H]1NC(=O)[C@H](Cc2ccc(O)cc2)NC(=O)[C@H](C(C)C)NC(=O)[C@H](CC(C)C)NC(=O)[C@H](Cc2ccc(O)cc2)NC(=O)[C@H](Cc2ccccc2)NC(=O)CSC[C@@H](C(=O)NCC(N)=O)NC(=O)[C@H](CC(C)C)NC(=O)[C@H](Cc2ccccc2)N(C)C(=O)[C@H](Cc2ccc(O)cc2)NC(=O)[C@H](Cc2c[nH]c3ccccc23)NC(=O)CNC1=O` [Example 1044] ({CH2CO}-FYLVYLGWY[NMeF]LCG-NH2; thioether N-12), the IC50 was 38 nM.

For `CC(C)C[C@@H]1NC(=O)[C@H](Cc2ccc(O)cc2)NC(=O)[C@H](Cc2ccccc2)NC(=O)CSC[C@@H](C(=O)NCC(N)=O)NC(=O)[C@H](CC(C)C)NC(=O)[C@H](Cc2ccccc2)N(C)C(=O)[C@H](Cc2ccc(O)cc2)NC(=O)[C@H](Cc2c[nH]c3ccccc23)NC(=O)CNC(=O)[C@H](Cc2ccc(O)cc2)NC(=O)[C@H](Cc2ccc(O)cc2)NC(=O)[C@H](C(C)C)NC1=O` [Example 1045] ({CH2CO}-FYLVYYGWY[NMeF]LCG-NH2; thioether N-12), the IC50 was determined as 9 nM.

Take `CC(C)C[C@@H]1NC(=O)[C@H](Cc2ccccc2)N(C)C(=O)[C@H](Cc2ccc(O)cc2)NC(=O)[C@H](Cc2c[nH]c3ccccc23)NC(=O)CNC(=O)[C@H](CO)NC(=O)[C@H](Cc2ccc(O)cc2)NC(=O)[C@H](C(C)C)NC(=O)[C@H](CCCNC(=N)N)NC(=O)[C@H](Cc2ccc(O)cc2)NC(=O)[C@H](Cc2ccccc2)NC(=O)CSC[C@@H](C(=O)NCC(N)=O)NC1=O` [Example 1046] ({CH2CO}-FYRVYSGWY[NMeF]LCG-NH2; thioether N-12): the IC50 amounted to 6 nM.

The term IC50 denotes the concentration that gives 50% inhibition.

(Values after patent publication US20240116988A1, “ANTI-ROR1 MACROCYCLIC PEPTIDES AND COMPOSITIONS” (BRISTOL-MYERS SQUIBB COMPANY, priority 2022, published 2024).)
